Calls of active or inactive are those of the source. How the calls were made is not given here.
Test system: CCRIS mutagenicity, Ames/micronucleus/aberration tests
Assay: CCRIS mutagenicity studies
[1] = Test System: AMES SALMONELLA TYPHIMURIUM, Strain/Indicator: TA98, Metabolic Activation: NONE, Method: STANDARD PLATE
[2] = Test System: AMES SALMONELLA TYPHIMURIUM, Strain/Indicator: TA100, Metabolic Activation: NONE, Method: STANDARD PLATE
[3] = Test System: AMES SALMONELLA TYPHIMURIUM, Strain/Indicator: TA1535, Metabolic Activation: NONE, Method: PREINCUBATION
[4] = Test System: AMES SALMONELLA TYPHIMURIUM, Strain/Indicator: TA1535, Metabolic Activation: NONE, Method: STANDARD PLATE
[5] = Test System: AMES SALMONELLA TYPHIMURIUM, Strain/Indicator: TA1537, Metabolic Activation: NONE, Method: PREINCUBATION
[6] = Test System: E. COLI, Strain/Indicator: WP2 UVRA, Metabolic Activation: NONE, Method: STANDARD PLATE

CCN1CCN(C(=O)N[C@@H](C(=O)N[C@@H]2C(=O)N3[C@@H]2SC(C)(C)[C@@H]3C(=O)O)c2ccccc2)C(=O)C1=O
mutagenic call (Test System: AMES SALMONELLA TYPHIMURIUM, Strain/Indicator: TA98, Metabolic Activation: MOUSE, IN VIVO, Method: HOST-MEDIATED): inactive; negative
mutagenic call (Test System: AMES SALMONELLA TYPHIMURIUM, Strain/Indicator: TA98, Metabolic Activation: NONE, Method: PREINCUBATION): inactive; negative
mutagenic call [1]: inactive; negative
mutagenic call (Test System: AMES SALMONELLA TYPHIMURIUM, Strain/Indicator: TA98, Metabolic Activation: RAT, LIVER, S-9, AROCLOR 1254, Method: STANDARD PLATE): inactive; negative
mutagenic call (Test System: AMES SALMONELLA TYPHIMURIUM, Strain/Indicator: TA98, Metabolic Activation: S-9, Method: PREINCUBATION): inactive; negative
mutagenic call (Test System: AMES SALMONELLA TYPHIMURIUM, Strain/Indicator: TA100, Metabolic Activation: MOUSE, IN VIVO, Method: HOST-MEDIATED): inactive; negative
mutagenic call (Test System: AMES SALMONELLA TYPHIMURIUM, Strain/Indicator: TA100, Metabolic Activation: NONE, Method: PREINCUBATION): inactive; negative
mutagenic call [2]: inactive; negative
mutagenic call (Test System: AMES SALMONELLA TYPHIMURIUM, Strain/Indicator: TA100, Metabolic Activation: RAT, LIVER, S-9, AROCLOR 1254, Method: STANDARD PLATE): inactive; negative
mutagenic call (Test System: AMES SALMONELLA TYPHIMURIUM, Strain/Indicator: TA100, Metabolic Activation: S-9, Method: PREINCUBATION): inactive; negative
mutagenic call (Test System: AMES SALMONELLA TYPHIMURIUM, Strain/Indicator: TA1535, Metabolic Activation: MOUSE, IN VIVO, Method: HOST-MEDIATED): inactive; negative
mutagenic call [3]: inactive; negative
mutagenic call [4]: inactive; negative
mutagenic call (Test System: AMES SALMONELLA TYPHIMURIUM, Strain/Indicator: TA1535, Metabolic Activation: RAT, LIVER, S-9, AROCLOR 1254, Method: STANDARD PLATE): inactive; negative
mutagenic call (Test System: AMES SALMONELLA TYPHIMURIUM, Strain/Indicator: TA1535, Metabolic Activation: S-9, Method: PREINCUBATION): inactive; negative
mutagenic call (Test System: AMES SALMONELLA TYPHIMURIUM, Strain/Indicator: TA1537, Metabolic Activation: MOUSE, IN VIVO, Method: HOST-MEDIATED): inactive; negative
mutagenic call [5]: inactive; negative
mutagenic call (Test System: AMES SALMONELLA TYPHIMURIUM, Strain/Indicator: TA1537, Metabolic Activation: NONE, Method: STANDARD PLATE): inactive; negative
mutagenic call (Test System: AMES SALMONELLA TYPHIMURIUM, Strain/Indicator: TA1537, Metabolic Activation: RAT, LIVER, S-9, AROCLOR 1254, Method: STANDARD PLATE): inactive; negative
mutagenic call (Test System: AMES SALMONELLA TYPHIMURIUM, Strain/Indicator: TA1537, Metabolic Activation: S-9, Method: PREINCUBATION): inactive; negative
mutagenic call (Test System: AMES SALMONELLA TYPHIMURIUM, Strain/Indicator: TA1538, Metabolic Activation: NONE, Method: STANDARD PLATE): inactive; negative
mutagenic call (Test System: AMES SALMONELLA TYPHIMURIUM, Strain/Indicator: TA1538, Metabolic Activation: RAT, LIVER, S-9, AROCLOR 1254, Method: STANDARD PLATE): inactive; negative
mutagenic call (Test System: E. COLI, Strain/Indicator: WP2 UVRA, Metabolic Activation: NONE, Method: PREINCUBATION): inactive; negative
mutagenic call [6]: inactive; negative
mutagenic call (Test System: E. COLI, Strain/Indicator: WP2 UVRA, Metabolic Activation: RAT, LIVER, S-9, AROCLOR 1254, Method: STANDARD PLATE): inactive; negative
mutagenic call (Test System: E. COLI, Strain/Indicator: WP2 UVRA, Metabolic Activation: S-9, Method: PREINCUBATION): inactive; negative

COc1cc(-c2nc(-c3ccccc3)c(-c3ccccc3)[nH]2)ccc1O
mutagenic call [1]: inactive; negative
mutagenic call (Test System: AMES SALMONELLA TYPHIMURIUM, Strain/Indicator: TA98, Metabolic Activation: RAT LIVER S-9, 3-METHYLCHOLANTHRENE, SODIUM PHENOBARBITAL, Method: STANDARD PLATE): inactive; negative
mutagenic call [2]: active; positive

Nc1ccc2nc3ccccc3cc2c1
mutagenic call [3]: inactive; negative
mutagenic call (Test System: AMES SALMONELLA TYPHIMURIUM, Strain/Indicator: TA1535, Metabolic Activation: RAT, LIVER, S-9, TETRACHLOROBIPHENYL, Method: PREINCUBATION): active; positive
mutagenic call [5]: active; positive
mutagenic call (Test System: AMES SALMONELLA TYPHIMURIUM, Strain/Indicator: TA1537, Metabolic Activation: RAT, LIVER, S-9, TETRACHLOROBIPHENYL, Method: PREINCUBATION): active; positive
mutagenic call (Test System: AMES SALMONELLA TYPHIMURIUM, Strain/Indicator: TA1538, Metabolic Activation: NONE, Method: PREINCUBATION): inactive; negative
mutagenic call (Test System: AMES SALMONELLA TYPHIMURIUM, Strain/Indicator: TA1538, Metabolic Activation: RAT, LIVER, S-9, TETRACHLOROBIPHENYL, Method: PREINCUBATION): active; positive
mutagenic call (Test System: AMES SALMONELLA TYPHIMURIUM, Strain/Indicator: TA1975, Metabolic Activation: RAT, LIVER, S-9, TETRACHLOROBIPHENYL, Method: PREINCUBATION): inactive; negative
mutagenic call (Test System: AMES SALMONELLA TYPHIMURIUM, Strain/Indicator: TA1977, Metabolic Activation: NONE, Method: PREINCUBATION): inactive; negative
mutagenic call (Test System: AMES SALMONELLA TYPHIMURIUM, Strain/Indicator: TA1977, Metabolic Activation: RAT, LIVER, S-9, TETRACHLOROBIPHENYL, Method: PREINCUBATION): active; positive
mutagenic call (Test System: AMES SALMONELLA TYPHIMURIUM, Strain/Indicator: TA1978, Metabolic Activation: RAT, LIVER, S-9, TETRACHLOROBIPHENYL, Method: PREINCUBATION): active; positive

CCCN(C)N=O
mutagenic call (Test System: CHINESE HAMSTER V-79, Strain/Indicator: V-79/8-AZAGUANINE, Metabolic Activation: RAT, LIVER, S-15, PHENOBARBITAL, Method: STANDARD PLATE): active; positive
mutagenic call (Test System: CHINESE HAMSTER V-79, Strain/Indicator: V-79/OUABAIN, Metabolic Activation: HAMSTER, HEPATOCYTES, Method: CELL-MEDIATED): active; positive

CC(=O)c1ccc(NO)cc1
mutagenic call [2]: active; positive
mutagenic call [4]: inactive; negative
mutagenic call (Test System: E. COLI, Strain/Indicator: WP2 UVRA(P), Metabolic Activation: NONE, Method: STANDARD PLATE): active; positive
mutagenic call (Test System: E. COLI, Strain/Indicator: WP2 UVRA, Metabolic Activation: NONE, Method: FLUCTUATION TEST): inactive; negative
mutagenic call [6]: active; positive

O=C(C(Cl)Cl)C(Cl)(Cl)Cl
mutagenic call [1]: active; positive
mutagenic call [2]: active; positive

CC1CC(C(C)C(C)(C)O)O[C@H]2C[C@@]3(C)[C@@H]4CC[C@H]5C(C)(C)C(=O)CC[C@@]56C[C@@]46CC[C@]3(C)[C@@H]12 (some centres undefined)
mutagenic call (End Point: IN VITRO MICRONUCLEUS, Test System: HUMAN PERIPHERAL LYMPHOCYTES, Metabolic Activation: NONE): inactive; negative

— PubChem BioAssay AID1259407 (Chemical Carcinogenesis Research Information System (CCRIS), 2018)
